Data set [1] has as its system Local Graft-versus-Host Reaction in BDF1 mice. Kind of data set: Local Graft-versus-Host Reaction (GvHR) in Mice. The note with it: Mus musculus, po; orally for five days; weight difference right and left popliteal lymph nodes, day 7; read-out: ED50 for prevention of the local graft-versus-host reaction. It is filed as in vivo. How it is done: The viable spleen cells ([…] cells) from C57BL/6 donors were injected subcutaneously into the right hind foot pad of BDF1 mice to induce local GvHR. The mice were killed 7 days later and both right (injected paw) and left (uninjected paw) popliteal lymph nodes (PLN) were weighed. The GVHR was expressed as the weight difference between right and left PLN. The FR-900506 substance was dissolved in olive oil and administered orally for five days starting on the same day as sensitization.

In data set [2] the test system is Experimental Allergic Encephalomyelytis in SJL/J Mice. The data set is described as follows: Experimental Allergic Encephalomyelitis (EAE) in SJL/J Mice. It counts as in vivo, mouse.
Data set [3] concerns Plaque Forming Cell (PFC) Response in C3H/He mice. The data set is described as follows: in vivo Plaque Forming Cell (PFC) Response in Mice. Details: species or system mouse. On the procedure:
Male C3H/He mice 6 to 7 weeks of age were used for this 1 test. The mice were immunized on day 0 with 0.2 ml of 1 ×10^8 washed sheep erythrocytes intravenously. Spleens were removed on day 4 and spleen cells were incubated in the presence of SRBC as described by Cunningham and Szenberg (1968). Tests were evaluated by enumeration of direct generated plaque forming cells in the presence of complement. Suspensions of spleen cells were counted with a Microcellcounter CC-130 (Sysmex, Japan) and PFC results were calculated as PFC/10^6 recovered cells. The FR-900506 substance was administered orally for 4 days starting from the immunization.

The nature of data set [4]: Solubility (physical and chemical properties). It counts as physicochemical.
In data set [5] the test system is Interleukin-2 (IL-2) Production. Kind of data set: Inhibition of Interleukin-2 (IL-2) Production in MLR, CTLL-2 bioassay. It counts as cell-based, mouse. The following applies: for IL-2: MLR supernatant at 48 hours. On the procedure: The mixed lymphocyte reaction (MILR) was performed in microtiter plates, with each well containing 5 ×10^5 C57BL/6 responder cells (H-2^b), 5 ×10^5 mitomycin C treated (25 μg/ml mitomycin C at 37° C. for 30 minutes and washed three times pith RPMI 1640 medium) BALB/C stimulator cells ([…]) in 0.2 ml RPMI 1640 medium supplemented with 10% fetal calf serum, 2mM sodium hydrogen carbonate, penicillin 20 (50 unites/ml) and streptomycin (50 μg/ml) . The cells were incubated at 37° C. in humidified atmosphere of 5% carbon dioxide and 95% of air for 48 hours and the supernatant was collected. The FR-900506 substance was dissolved in ethanol and further diluted in RPMI 1640 medium and added to the cultures to give final concentrations of 0.1 μg/ml or less.
The IL-2 activity was measured according to the method described by S. Gillis et. al. [Journal of Inununology, Vol. 120, page 2027, (1978)]. The IL-2 dependent CTLL-2 cell line was used to quantitate IL-2 activity. Cells (5 ×10^3/well) were cultured at 37° C. for 24 hours with various dilutions of IL-2 containing supernatant from MLR. The uptake of ^3H-thymidine was measured by pulsing cultures with 0.5 uCi of 1T-thymidine for 6 hours. The unit value was calculated by dilution analysis of test sample and was compared with a laboratory standard preparation in which 100 units are equivalent to the amount of IL-2 necessary to achieve 50% proliferation of CTLL-2 cells.

Data set [6] deals with Skin Allograft Survival in Rats (Fischer donor, WKA recipient). Kind of data set: Skin Allograft Survival in Rats. It counts as in vivo, rat. The following applies: daily treatment, intramuscularly, 14 consecutive days. How it is done: Vental allografts from donor (Fischer) rats were grafted onto the lateral thoracic area of recipient (WKA) rats. The dressings were removed on day 5. The grafts were inspected daily until rejection which was defined as more than 90% necrosis of the graft epitherium.
The FR-900506 substance was dissolved in olive oil and administered intramuscularly for 14 consecutive days, beginning at the day of transplantation.

Data on one compound can be found in patent US20040029908A1, “Tricyclo compounds, a process for their production and a pharmaceutical composition containing the same” (FUJISAWA PHARMACEUTICAL CO., LTD., priority 1984, published 2004).

The ED50 is the midpoint of the dose-response relation. By inhibition is commonly meant the relative decrease from the control value, in per cent. Low readings indicate a weak effect, high ones a strong effect. As to `C=CCC1/C=C(\C)CC(C)CC(OC)C2OC(O)(C(=O)C(=O)N3CCCCC3C(=O)OC(/C(C)=C/C3CCC(O)C(OC)C3)C(C)C(O)CC1=O)C(C)CC2OC` (stereo not drawn) [FR-900506, 17-Allyl-1,14-dihydroxy-12-[2-(4-hydroxy-3-methoxycyclohexyl)-1-methyvinyl]-23-25-dimethoxy-13,19,21,27-tetramethyl-11,28-dioxa-4-azatricyclo[22.3.1.0^4,9]octacos-18-ene-2,3,10,16-tetraone], the ED50 in data set [1] is 19 mg/kg; in data set [3] (Mus musculus, po, 96 h, orally for 4 days starting from the immunization), 5.9 mg/kg. The “Number of Animals with Disease at Day 24” value in data set [2] (32 mg/kg orally for 19 days starting on day 0) is given as 0/5. For the same compound, in data set [2] (orally for 19 days starting on day 0), the “Development of clinical signs of EAE (in words)” value is “clearly prevented the development of clinical signs of EAE”. For the same compound, the “PFC/10^6 cells” value in data set [3] (3.2 mg/kg orally for 4 days) was found to be 3618 ± 476 PFC/10^6 cells; in data set [3] (10 mg/kg orally for 4 days), 1382 ± 243 PFC/10^6 cells; in data set [3] (32 mg/kg orally for 4 days), 657 ± 41 PFC/10^6 cells; in data set [3] (100 mg/kg orally for 4 days), 278 ± 41 PFC/10^6 cells. The Solubility entry was “Sparingly Soluble” in data set [4] (hexane (n-hexane), petroleum ether); “Soluble” in data set [4] (methanol, ethanol, acetone, ethyl acetate, chloroform, diethyl ether and benzene); “Insoluble” in data set [4] (water). Besides, the “Production of IL-2 from mouse MLR (in words)” value in data set [5] is given as “inhibited the production of Il-2 from mouse MLR”. Also, the IL-2 in data set [5] (0.1 nM) is recorded as 25.0 units/ml; in data set [5] (0.3 nM), 0.2 units/ml; in data set [5] (1 nM), 0 units/ml; in data set [5] (10 nM) it was 0 units/ml. The same compound gave an inhibition at 0.0001 µM in data set [5] (Mus musculus, CTLL-2, 0.1 nM) of 34.4%. The compound also came in with an inhibition at 0.0003 µM in data set [5] (Mus musculus, CTLL-2, 0.3 nM) of 99.5%. The compound further displayed an inhibition at 0.001 µM in data set [5] (Mus musculus, CTLL-2, 1 nM) of 100%. In addition, in data set [5] (Mus musculus, CTLL-2, 10 nM), the inhibition at 0.01 µM came out at 100%. Besides, the “Effect on skin allograft survival (in words)” value in data set [6] is recorded as “clearly prolonged skin allograft survival”.
